One assay has as its target T1, PKCα (Homo sapiens, UniProt P17252).
T1 construct: purchased Calbiochem (San Diego, Calif.)
The assay can be described thus: Protein kinase C assay with recombinant PKC alpha isoform ([γ32P]ATP, histones). Type of assay: biochemical. The note with it: data not shown. As for the experimental part:
Protein Kinase C Assay. Recombinant PKC (1 ng of alpha or epsilon isoform) was mixed with the BR-101 (DCP-LA) in the presence of 10 micromolar histones, 5 mM CaCl2, 1.2 μg/μl phosphatidyl-L-serine, 0.18 μg/μl 1,2-dioctanoyl-sn-glycerol (DAG), 10 mM MgCl2, 20 mM HEPES (pH 7.4), 0.8 mM EDTA, 4 mM EGTA, 4% glycerol, 8 μg/ml aprotinin, 8 μg/ml leupeptin, and 2 mM benzamidine. 0.5 micro Ci [γ32P]ATP was added. The incubation mixture was incubated for 15 min at 37 degrees in a total volume of 10 microliters. The reaction was stopped by spotting the reaction mixtures on 1×2 cm strips of cellulose phosphate paper (Whatman P81) and immediately washing twice for 1 hr in 0.5% H3PO4. The cellulose phosphate strips were counted in a scintillation counter. In some experiments, phosphatidylserine, diacylglycerol, and/or calcium were removed.

A further assay relates to PKC. The assay can be described thus: Sustained PKC activation in primary neurons. The format is cell-based, rat. The note with it: sustained activation only observed in primary neurons. As to the method: Cell Culture. Rat hippocampal H19-7/IGF-IR cells (ATCC, Manassas, Va.) were plated onto poly-L-lysine coated plates and grown at 35° C. in DMEM/10% FCS for several days until about 50% coverage was obtained. The cells were then induced to differentiate into a neuronal phenotype by replacing the medium with 5 ml N2 medium containing 10 ng/ml basic fibroblast growth factor at 39° C. and grown in T-75 flasks at 37° C. Human SH-SY5Y neuroblastoma cells (ATCC) were cultured in 45% F 12K/45% MEM/10% FCS. Mouse N2A neuroblastoma cells were cultured in DMEM/10% FCS without glutamine. Rat hippocampal neurons from 18-day-old embryonic
Sprague Dawley rat brains were plated on 12- or 96-well plates coated with poly-D-lysine (Sigma-Aldrich, St. Louis, Mo.) in B-27 neurobasal medium containing 0.5 mM glutamine and 25 μM glutamate (Invitrogen, Carlsbad, Calif.) and cultured for three days in the medium without glutamate. […]
Protein Kinase C Assay. […] 0.5 μCi [γ-32P]ATP was added and 32P-phosphoprotein formation was measured by adsorption onto phosphocellulose as described previously. […] For measurements of activation by BR-101 (DCP-LA) and similar compounds, PKC activity was measured in the absence of diacylglycerol and phosphatidylserine, as described by Kanno et al., and PKC δ, ε, η, and were measured in the absence of added EGTA and CaCl2, as described by Kanno et al., J. Lipid Res. 2006; 47: 1146-50. […]

Another assay concerns TACE. The assay can be described thus: TACE assay in cell homogenates of neuronal cells. The format is cell-based. The note with it: human SH-SY5Y, N2a mouse neuroblastoma cells, primary neurons from rat hippocampus. As to the method:
TACE Assay. TACE was measured by incubating 5 μl cell homogenate, 3 μl buffer (50 mM Tris-HCl 7.4 plus 25 mM NaCl plus 4% glycerol), and 1 μl of 100 μM TACE substrate IV (Aβz-LAQAVRSSSR-DPa) (Calbiochem) for 20 min at 37° in 1.5-ml polypropylene centrifuge tubes (Jin et al., Anal. Biochem. 2002; 302: 269-75). The reaction was stopped by cooling to 4° C. The samples were diluted to 1 ml and the fluorescence was rapidly measured (ex=320 nm, em=420 nm) in a Spex Fluorolog 2 spectrofluorometer.
Buxbaum et al., J. Biol. Chem. 1998; 273: 27765-67; Etcheberrigaray et al., Proc. Natl. Acad. Sci. USA. 2006: 103:8215-20. However, many of these earlier studies were carried out in fibroblasts and other non-neuronal cell types, which appear to respond differently to PKC activators than neurons.

The subject of assay [1] is Endothelin-converting enzyme (ECE). The assay can be described thus: ECE assay in neuroblastoma cells (fluorimetric, McaBK2). Type of assay: cell-based, human. The note with it: bryostatin 0.27 nM, BR-101 1 μM, BR-111 1. As to the method: ECE Assay. SH-5757 neuroblastoma cells were incubated with bryostatin (0.27 nM), BR-101 (DCP-LA) (1 μM), and BR-111 (DHA-CP6) (1 Endothelin-converting enzyme (ECE) was measured fluorimetrically using the method of Johnson and Ahn, Anal. Biochem. 2000; 286: 112-118. A sample of cell homogenate (20 μl) was incubated in 50 mM MES-KOH, pH 6.0, 0.01% C 12E10 (polyoxyethylene-10-lauryl ether), and 15 μM McaBK2 (7-Methoxycoumarin-4-acetyl [Ala7-(2,4-Dinitrophenyl)Lys9]-bradykinin trifluoroacetate salt) (Sigma-Aldrich). After 60 min at 37° C., the reaction was quenched by adding trifluoroacetic acid to 0.5%. The sample was diluted to 1.4 ml with water and the fluorescence was measured at ex=334 nm, em=398 nm.

Consider `CCCCCC1CC1CC1CC1CCCCCCCC(=O)O` (stereo not shown) [BR-101, 8-[2-(2-pentyl-cyclopropylmethyl)-cyclopropyl]-octanoic acid], for which the “effect on PKCα” value at PKCα is “not affected”. Besides, in the assay with PKC, the “duration of PKC elevation” value was “remained elevated for at least four hours”. For the same compound, the “change in TACE activity” value in the assay with TACE is given as “only produced small increases”. For the same compound, in assay [1], the “change in ECE activity” value is listed as “sustained increase”.

Values taken from patent US20230235378A1, “LZHEIMER'S DISEASE-SPECIFIC ALTERATIONS OF PROTEIN KINASE C EPSILON (PKC-EPSILON PROTEIN LEVELS” (WEST VIRGINIA UNIVERSITY BOARD OF GOVERNORS ON BEHALF OF …, priority 2010, published 2023).
